Laboratory results reported in US10350252B2, “Cocoa polyphenols and their use in the treatment or prevention of eosinophilic esophagitis” (NESTEC S.A., priority 2013, dated 2019).

Test system: eosinophils in the esophagus
Test: Mouse model of eosinophilic esophagitis (epicutaneous Aspergillus fumigatus sensitization, intranasal challenge): eosinophil count in H&E stained esophagus
Type: in vivo, Balb/c mice
Conditions: compared to the positive control (3X ASP sensitized, 1x ASP challenged, untreated); test substance in the food; harvest on day 32
Method: It is the object of the invention to provide new and alternative solutions to the problem of preventing or treating eosinophilic esophagitis. […] The evaluation of ingredients which are useful in the treatment or prevention of eosinophilic esophagitis is performed using an established mouse model for eosinophilic esophagitis (Akei et al., “Epicutaneous antigen exposure primes for experimental eosinophilic esophagitis in mice”, Gastroenterology, 2005 September; 129(3):985-94). This model uses various parameters including the number of eosinophils in the esophagus as indicators for the effect on eosinophilic esophagitis. Accordingly, is ideally suited for the testing of compounds that are candidates for the treatment or prevention of eosinophilic esophagitis. FIG. 2. Eosinophil number in the esophagus. The esophagea were harvested and tissue histology was performed. Eosinophils were identified and counted on Hematoxylin & Eosin (H&E) stained slides per high powered field (hpf). The maximal number of eosinophils found in one hpf field in the whole esophagus is shown. The maximal number of eosinophils present in the esophagal epithelium is represented. […] Esophagi were harvest and stained with hematoxylin eosin and eosinophils were counted (maximum/high power field, see FIG. 2).

Q: For `Oc1cc(O)c2c(c1)O[C@H](c1ccc(O)c(O)c1)[C@H](O)C2` [epicatechin], which “reduction of eosinophils in the esophagus (maximum number per high power field)” value is on record?
A: no effect
